In brackets after ≈: the same amount, converted by molar mass. Read-outs that look alike come from different tables or passages of the source. Where a SMILES comes first, the peptide text is derived from it. Where no end group is shown, it is not given here.
What was measured:
Assay in all cases: microbe, parasite or virus in culture
Format in all cases: cell-based
[1] = test system: Pseudomonas aeruginosa clinical isolate - animal; settings: clinical isolate - animal
How it was run: (§1)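 Each isolate was exposed to twofold peptide dilutions (final 64-0.125μg/mL) in Mueller Hinton broth, optionally supplemented with calcium and magnesium or 10% lysed horse blood. The MIC was taken as the lowest concentration lacking visible growth after 20–24 hours at 35°C.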

[2] = test system: Staphylococcus aureus clinical isolate - animal; settings: clinical isolate - animal; read-out: MIC S. aureus
How it was run: as §1

[3] = test system: Staphylococcus aureus ATCC 29213; settings: ATCC 29213; read-out: MIC S. aureus ATCC
How it was run: as §1

[4] = test system: Escherichia coli clinical isolate - animal; settings: clinical isolate - animal
How it was run: as §1

[5] = test system: Escherichia coli ATCC 25922; settings: ATCC 25922
How it was run: as §1

[6] = test system: Pseudomonas aeruginosa ATCC 27853; settings: ATCC 27853; for MIC: read-out: MIC P. aeruginosa ATCC
How it was run: as §1

[7] = test system: Streptococcus pneumoniae ATCC 49619; settings: ATCC 49619; for MIC: read-out: MIC S. pneumoniae ATCC
Method: (§2) Antimicrobial testing of 78 cathelicidin MPs was performed in two phases as outlined in Figure 1 . In phase I, 40 peptides (27 extant and 13 ancestral) were selected for testing based on rank (outlined above) and similarity to published marsupial cathelicidins with known antimicrobial activity ([33], [41]–[43]). These peptides were tested against nine bacteria (Staphylococcus aureus ATCC 29213 and clinical isolate, Escherichia coli ATCC 25922 and clinical isolate, Pseudomonas aeruginosa ATCC 27853 and clinical isolate, Streptococcus agalactiae ATCC 12386 and clinical isolate, Streptococcus pneumoniae ATCC 49619) and three fungi (Candida krusei ATCC 6258, Candida parapsilosis ATCC 22019, and Candida albicans clinical isolate). Details regarding these strains are available in Supplementary Table 4 . The antimicrobial activity of cathelicidins was determined as the minimum inhibitory concentration (MIC), which was the lowest concentration of cathelicidin that prevented visible bacterial or fungal growth, relative to the negative control. […] Minimum bactericidal concentration (MBC) and/or minimum fungicidal concentration (MFC) was conducted to determine microbicidal versus static action. Activity against S. aureus ATCC, E. coli ATCC, and Pseudomonas aeruginosa ATCC 27853 was examined in the presence of divalent cations to determine the impact of inhibitors.
(§3) Antimicrobial activity was determined using a broth microdilution susceptibility assay in 96 well polypropylene plates according to Clinical Laboratory Standards Institute guidelines M07-A and M26A as described previously ([33], [42], [43]). The bacterial and fungal isolates from humans and animals used in this study are outlined in Supplementary Table 4 . Only yeasts were included in the panel of fungi as they have been used in the susceptibility testing of eutherian ([3], [81]–[83]) and other marsupial cathelicidins previously ([33], [42], [43]). Cathelicidin mature peptides were solubilized in DMSO and serially diluted in duplicate from 128-0.25μg/mL in a final volume of 100µL. For bacteria, cathelicidins were diluted in Mueller Hinton Broth (MHB) with or without 10% lysed horse blood, and with (MH II B) or without (MHB) calcium and magnesium cations. For fungi, cathelicidins were diluted in Roswell Park Memorial Institute medium (RPMI)-1640 MOPS. Ampicillin or tetracycline were included as a positive control for Gram-positive and -negative bacteria respectively, while amphotericin B was used for fungi. A media-only negative control and growth control (no cathelicidin) were also included on each plate. Bacteria were sub-cultured on Muller Hinton agar (MHA) or sheep blood agar (BA), and fungi on Sabouraud dextrose agar (SAB), 20–24 hours prior to the test. Colonies were suspended in saline, the concentration adjusted to a 0.5 McFarland standard, and then diluted in media to a concentration of 1.0 x 10^6 cells/mL. Then, 100μL was added to each well of the cathelicidin dilution plate, giving a final inoculum density of 5 x 10^5 CFU/mL and cathelicidin concentration of 64-0.125μg/mL. Colony counts were performed on MHA/BA/SAB to confirm inoculum density. All plates were incubated at 35°C for 20–24 hours, depending on the strain.
(§4) Colonies were counted and compared to the colony count of the starting inoculum.

[8] = test system: Streptococcus agalactiae Clinical isolate - animal; settings: clinical isolate - animal; for MIC: read-out: MIC S. agalactiae
Method: as §2, §3, §4

[9] = test system: Streptococcus agalactiae ATCC 12386; settings: ATCC 12386; for MIC: read-out: MIC S. agalactiae ATCC
Method: as §2, §3, §4

[10] = read-out: MIC in the presence of cations E. coli ATCC

Compound: CC[C@H](C)[C@H](NC(=O)[C@H](C)NC(=O)[C@H](CC(N)=O)NC(=O)[C@H](CCCCN)NC(=O)[C@H](CC(C)C)NC(=O)[C@@H](NC(=O)[C@H](CC(N)=O)NC(=O)[C@H](CCCCN)NC(=O)[C@@H](NC(=O)[C@H](CCCCN)NC(=O)[C@H](CC(=O)O)NC(=O)CNC(=O)[C@H](C)NC(=O)[C@H](CCCCN)NC(=O)[C@H](CCCCN)NC(=O)[C@H](CC(C)C)NC(=O)[C@H](CC(C)C)NC(=O)[C@H](CC(N)=O)NC(=O)[C@H](CCCCN)NC(=O)[C@H](Cc1ccccc1)NC(=O)[C@H](CCCCN)NC(=O)[C@H](CCC(=O)O)NC(=O)[C@H](Cc1ccccc1)NC(=O)[C@@H](NC(=O)[C@H](CCCNC(=N)N)NC(=O)[C@H](CC(C)C)NC(=O)[C@H](CCCNC(=N)N)NC(=O)[C@@H](N)CCCCN)[C@@H](C)CC)[C@@H](C)CC)[C@@H](C)O)C(=O)N[C@@H](CC(N)=O)C(=O)NCC(=O)N[C@@H](CC(C)C)C(=O)N[C@@H](CC(C)C)C(=O)N[C@@H](CO)C(=O)N1CCC[C@H]1C(=O)N[C@H](C(=O)NCC(=O)N[C@@H](CCCNC(=N)N)C(=O)O)[C@@H](C)CC [MAP7] (H-KRLRIFEKFKNLLKKAGDKIKNTLKNAINGLLSPIGR-OH)
- MBC P. aeruginosa [1]: 64 µg/mL (≈ 15.1 µM)
- MIC ([1]; read-out: MIC P. aeruginosa): 7.5 µM (≈ 31.8 µg/mL)
- MIC ([1]; read-out: MIC in the presence of cations P. aeruginosa): 7.5 µM
- MIC [2]: >15.1 µM
- MIC [3]: >15.1 µM
- MBC E. coli [4]: 3.7 (3.7)^3.7 µM
- MIC E. coli [4]: 3.7 (3.7)^3.7 µM
- MIC in the presence of cations E. coli [4]: 3.7 (3.7)^3.7 µM
- MBC E. coli ATCC [5]: 3.7 µM (≈ 15.7 µg/mL)
- MIC ([5]; read-out: MIC E. coli ATCC): 1.8 µM (≈ 7.63 µg/mL)
- MIC [5, 10]: 1.8 µM
- MBC P. aeruginosa ATCC [6]: 7.5 (7.5)^7.5 µM
- MIC P. aeruginosa ATCC [6]: 7.5 (7.5)^7.5 µM
- MIC in the presence of cations P. aeruginosa ATCC [6]: 7.5 (7.5)^7.5 µM
- MBC S. pneumoniae ATCC [7]: 7.5 µM (≈ 31.8 µg/mL)
- MIC S. pneumoniae ATCC [7]: 7.5 µM (≈ 31.8 µg/mL)
- MBC S. agalactiae [8]: 15.1 µM (≈ 64 µg/mL)
- MIC S. agalactiae [8]: 15.1 µM (≈ 64 µg/mL)
- MBC S. agalactiae ATCC [9]: 15.1 µM (≈ 64 µg/mL)
- MIC S. agalactiae ATCC [9]: 15.1 µM (≈ 64 µg/mL)

Compound: CC[C@H](C)[C@H](NC(=O)[C@H](C)NC(=O)[C@H](CC(N)=O)NC(=O)[C@H](CCCCN)NC(=O)[C@H](Cc1ccccc1)NC(=O)[C@@H](NC(=O)[C@H](CC(=O)O)NC(=O)[C@H](CCCCN)NC(=O)[C@@H](NC(=O)[C@H](CCCCN)NC(=O)[C@H](CC(=O)O)NC(=O)[C@H](CO)NC(=O)[C@H](C)NC(=O)[C@H](CCCCN)NC(=O)[C@H](CCCCN)NC(=O)[C@H](CC(C)C)NC(=O)[C@H](CC(C)C)NC(=O)[C@H](CC(N)=O)NC(=O)[C@H](CCCCN)NC(=O)[C@@H](NC(=O)[C@H](CCCCN)NC(=O)[C@H](CCC(=O)O)NC(=O)[C@@H](NC(=O)[C@@H](NC(=O)[C@H](CCCNC(=N)N)NC(=O)[C@H](CC(C)C)NC(=O)[C@H](CCCNC(=N)N)NC(=O)[C@H](CCCCN)NC(=O)[C@@H](N)C(C)C)[C@@H](C)CC)C(C)C)[C@@H](C)CC)[C@@H](C)CC)[C@@H](C)O)C(=O)N[C@@H](CC(N)=O)C(=O)N[C@@H](CO)C(=O)N[C@@H](CC(C)C)C(=O)N[C@@H](CC(C)C)C(=O)N[C@@H](CO)C(=O)O [MacroCath7] (H-VKRLRIVEKIKNLLKKASDKIKDTFKNAINSLLS-OH)
- MIC ([1]; read-out: MIC P. aeruginosa): >16.3 µM
- MIC [2]: >16.3 µM
- MIC [3]: >16.3 µM
- MBC E. coli [4]: 16.3 (16.3)^16.3 µM
- MIC E. coli [4]: 16.3 (16.3)^16.3 µM
- MIC in the presence of cations E. coli [4]: 16.3 (16.3)^16.3 µM
- MBC E. coli ATCC [5]: 16.3 µM (≈ 64 µg/mL)
- MIC ([5]; read-out: MIC E. coli ATCC): 8.1 µM (≈ 31.8 µg/mL)
- MIC [5, 10]: 8.1 µM
- MIC [6]: >16.3 µM
- MIC [7]: >16.3 µM
- MIC [8]: >16.3 µM
- MIC [9]: >16.3 µM

Compound: CC[C@H](C)[C@H](NC(=O)[C@H](CC(C)C)NC(=O)[C@H](CCCCN)NC(=O)[C@H](C)NC(=O)[C@H](CC(C)C)NC(=O)[C@H](CO)NC(=O)[C@H](CCCNC(=N)N)NC(=O)[C@@H](N)C(C)C)C(=O)N[C@@H](Cc1ccc(O)cc1)C(=O)N[C@@H](CCC(N)=O)C(=O)N[C@@H](CCCCN)C(=O)N[C@@H](Cc1ccc(O)cc1)C(=O)N[C@@H](CCCNC(=N)N)C(=O)N[C@@H](CCC(N)=O)C(=O)N[C@@H](CC(C)C)C(=O)N[C@@H](CC(C)C)C(=O)N[C@@H](CC(=O)O)C(=O)N[C@@H](CCCCN)C(=O)N[C@@H](Cc1ccc(O)cc1)C(=O)N[C@H](C(=O)N[C@H](C(=O)N[C@@H](CC(C)C)C(=O)N[C@@H](CCCNC(=N)N)C(=O)N[C@@H](CC(N)=O)C(=O)NCC(=O)N[C@@H](Cc1ccc(O)cc1)C(=O)N[C@@H](CCCCN)C(=O)N[C@@H](CCCCN)C(=O)N[C@@H](CC(C)C)C(=O)N[C@@H](CCC(N)=O)C(=O)N[C@@H](CC(=O)O)C(=O)N[C@H](C(=O)N[C@@H](Cc1ccccc1)C(=O)N[C@@H](CO)C(=O)N[C@@H](CCCCN)C(=O)N[C@@H](CCC(N)=O)C(=O)N[C@H](C(=O)NCC(=O)N[C@@H](CO)C(=O)O)C(C)C)[C@@H](C)CC)[C@@H](C)CC)[C@@H](C)O [MacroCath8] (H-VRSLAKLIYQKYRQLLDKYTILRNGYKKLQDIFSKQVGS-OH)
- MIC ([1]; read-out: MIC P. aeruginosa): >13.6 µM
- MIC [2]: >13.6 µM
- MIC [3]: >13.6 µM
- MIC E. coli [4]: 13.6 (>13.6)^13.6 µM
- MIC in the presence of cations E. coli [4]: 13.6 (>13.6)^13.6 µM
- MIC ([5]; read-out: MIC E. coli ATCC): >13.6 µM
- MIC [6]: >13.6 µM
- MIC [7]: >13.6 µM
- MIC [8]: >13.6 µM
- MIC [9]: >13.6 µM

Compound: CC[C@H](C)[C@H](NC(=O)CNC(=O)[C@H](CCC(=O)O)NC(=O)[C@H](CCC(N)=O)NC(=O)[C@@H](NC(=O)[C@H](CCCCN)NC(=O)[C@H](CC(N)=O)NC(=O)[C@H](CCCCN)NC(=O)[C@@H](NC(=O)[C@H](CC(C)C)NC(=O)[C@H](CC(N)=O)NC(=O)CNC(=O)[C@H](CC(C)C)NC(=O)[C@H](CCCCN)NC(=O)[C@H](CCCNC(=N)N)NC(=O)[C@H](CC(C)C)NC(=O)CN)[C@@H](C)CC)[C@@H](C)CC)C(=O)N[C@@H](CCC(=O)O)C(=O)N[C@@H](Cc1c[nH]cn1)C(=O)N[C@@H](Cc1ccccc1)C(=O)N[C@@H](Cc1ccccc1)C(=O)NCC(=O)N[C@@H](CCCNC(=N)N)C(=O)N[C@@H](CCCNC(=N)N)C(=O)O [SmcrCath6] (H-GLRKLGNLIKNKIQEGIEHFFGRR-OH)
- MIC ([1]; read-out: MIC P. aeruginosa): >22.6 µM
- MIC [2]: >22.6 µM
- MIC [3]: >22.6 µM
- MIC [4]: >22.6 µM
- MBC E. coli ATCC [5]: 22.6 µM (≈ 63.8 µg/mL)
- MIC ([5]; read-out: MIC E. coli ATCC): 11.3 µM (≈ 31.9 µg/mL)
- MIC [5, 10]: 22.6 µM
- MIC [6]: >22.6 µM
- MIC [7]: >22.6 µM
- MIC [8]: >22.6 µM
- MIC [9]: >22.6 µM

Compound: KVKRGLWDSVKKKVSKFRNSIRRRVTSFKIGAADIRKGYSVA [BepeCath7]
- MIC ([1]; read-out: MIC P. aeruginosa): >13.2 µM
- MIC [2]: >13.2 µM
- MIC [3]: >13.2 µM
- MBC E. coli [4]: 13.2 µM
- MIC [4]: 6.6 µM
- MIC in the presence of cations E. coli [4]: 6.6 µM
- MBC E. coli ATCC [5]: 13.2 µM
- MIC ([5]; read-out: MIC E. coli ATCC): 6.6 µM
- MIC [5, 10]: 6.6 µM
- MIC [6]: >13.2 µM
- MIC [7]: >13.2 µM
- MIC [8]: >13.2 µM
- MIC [9]: >13.2 µM

Reference: publication PMC12006171, “Marsupial cathelicidins: characterization, antimicrobial activity and evolution in this unique mammalian lineage” (Frontiers in Immunology, 2025)
